Data from ChEMBL document CHEMBL5030530, “Design, synthesis, and cholinesterase inhibition assay of liquiritigenin derivatives as anti-Alzheimer's activity” (Bioorg Med Chem Lett, 2021).
The source made the active and inactive calls. The rule behind the calls is not given here.

Columns and labels:
[1] = target: Acetylcholinesterase (Electrophorus electricus, UniProt O42275); assay: Inhibition of electric eel AChE using acetylthiocholine iodide as substrate incubated for 15 to 20 mins by Ellman's method
[2] = target: Cholinesterase (Equus caballus, UniProt P81908); assay: Inhibition of equine serum BuChE using butyrylthiocholine chloride as substrate incubated for 15 to 20 mins by Ellman's method; format: cell-free
[3] = Selectivity index, ratio of IC50 for equine serum BuChE using butyrylthiocholine chloride as substrate to IC50 for electric eel AChE using acetylthiocholine iodide as substrate incubated for 15 to 20 mins by Ellman's method; conditions: time 15-20 min
[4] = Antioxidant activity assessed as ABTS radical scavenging activity; format: functional
[5] = Cytotoxicity against human PBMC assessed as reduction in cell viability; format: ADME, tissue-based
[6] = tested on: HepG2; assay: Cytotoxicity against human HepG2 cells assessed as reduction in cell viability; format: ADME, cell-based
[7] = target: Acetylcholinesterase (Electrophorus electricus) (UniProt O42275); assay: Mixed type inhibition of electric eel AChE assessed as increase in Km at 3.2 to 12.8 uM using varying levels of acetylthiocholine iodide as substrate by Lineweaver-Burk plot analysis; conditions: dose 3.2-12.8 µM
[8] = target: Acetylcholinesterase (Electrophorus electricus) (UniProt O42275); assay: Mixed type inhibition of electric eel AChE assessed as decrease in Vmax at 3.2 to 12.8 uM using varying levels of acetylthiocholine iodide as substrate by Lineweaver-Burk plot analysis; conditions: dose 3.2-12.8 µM

Chain of Acetylcholinesterase (O42275 whole entry): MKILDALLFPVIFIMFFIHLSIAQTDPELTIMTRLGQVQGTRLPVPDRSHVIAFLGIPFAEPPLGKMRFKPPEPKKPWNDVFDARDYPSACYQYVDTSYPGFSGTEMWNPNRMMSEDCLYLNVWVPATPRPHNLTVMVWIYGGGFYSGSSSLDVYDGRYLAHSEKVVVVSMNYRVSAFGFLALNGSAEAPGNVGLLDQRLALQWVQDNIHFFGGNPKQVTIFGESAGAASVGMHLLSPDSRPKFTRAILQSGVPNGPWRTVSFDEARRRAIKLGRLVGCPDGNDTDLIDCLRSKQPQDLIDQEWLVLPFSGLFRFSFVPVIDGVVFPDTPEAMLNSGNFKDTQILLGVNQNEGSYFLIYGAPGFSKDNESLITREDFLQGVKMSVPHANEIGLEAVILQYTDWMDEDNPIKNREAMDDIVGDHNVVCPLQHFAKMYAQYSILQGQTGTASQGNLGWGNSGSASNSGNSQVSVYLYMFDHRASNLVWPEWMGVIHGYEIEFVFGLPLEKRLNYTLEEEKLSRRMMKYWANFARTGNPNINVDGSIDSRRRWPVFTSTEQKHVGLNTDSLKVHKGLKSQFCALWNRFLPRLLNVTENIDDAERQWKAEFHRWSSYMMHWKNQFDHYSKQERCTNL
Chain of Cholinesterase (P81908 whole entry): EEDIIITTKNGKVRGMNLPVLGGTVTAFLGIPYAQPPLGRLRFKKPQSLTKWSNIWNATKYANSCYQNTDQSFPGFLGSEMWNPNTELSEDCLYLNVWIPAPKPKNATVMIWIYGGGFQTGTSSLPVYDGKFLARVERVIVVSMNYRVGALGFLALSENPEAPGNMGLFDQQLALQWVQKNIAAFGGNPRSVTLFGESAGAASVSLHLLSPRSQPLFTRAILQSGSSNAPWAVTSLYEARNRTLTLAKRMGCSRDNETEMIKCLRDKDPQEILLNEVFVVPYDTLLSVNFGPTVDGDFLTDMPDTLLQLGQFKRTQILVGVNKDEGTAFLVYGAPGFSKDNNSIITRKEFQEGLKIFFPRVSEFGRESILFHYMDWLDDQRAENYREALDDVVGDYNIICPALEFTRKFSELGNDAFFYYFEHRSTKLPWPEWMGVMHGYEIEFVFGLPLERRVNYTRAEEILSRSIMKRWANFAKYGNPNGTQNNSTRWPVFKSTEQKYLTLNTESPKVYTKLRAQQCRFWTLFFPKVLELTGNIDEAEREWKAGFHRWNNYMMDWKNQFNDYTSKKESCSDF
Chain of Acetylcholinesterase (Electrophorus electricus) (O42275 24-633 limits assumed): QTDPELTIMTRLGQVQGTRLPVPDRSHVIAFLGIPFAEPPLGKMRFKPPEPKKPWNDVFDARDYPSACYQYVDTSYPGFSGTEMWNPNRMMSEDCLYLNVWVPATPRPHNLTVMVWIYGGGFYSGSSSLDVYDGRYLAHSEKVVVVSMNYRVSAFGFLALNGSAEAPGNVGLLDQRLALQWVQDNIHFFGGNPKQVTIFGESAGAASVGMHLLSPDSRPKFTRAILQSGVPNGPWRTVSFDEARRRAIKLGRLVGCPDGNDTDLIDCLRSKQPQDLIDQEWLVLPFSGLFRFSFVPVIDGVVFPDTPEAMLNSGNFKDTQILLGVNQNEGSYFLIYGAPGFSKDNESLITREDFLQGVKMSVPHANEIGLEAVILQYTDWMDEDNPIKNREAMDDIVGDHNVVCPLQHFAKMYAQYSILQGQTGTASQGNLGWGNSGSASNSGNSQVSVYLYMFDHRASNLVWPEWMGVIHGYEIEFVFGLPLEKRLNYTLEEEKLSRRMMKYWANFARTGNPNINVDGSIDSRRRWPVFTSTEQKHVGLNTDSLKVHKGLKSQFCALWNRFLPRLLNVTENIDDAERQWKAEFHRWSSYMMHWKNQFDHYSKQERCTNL

Structure (SMILES)	IC50 [1] [µM]	IC50 [2] [µM]	Ratio IC50 [3]	IC50 [4] [µM]	IC50 [5] [µM]	IC50 [6] [µM]	inhibition [7]	inhibition [8]
CC(C)=CCOc1cc(O)c2c(c1)OC(c1ccccc1F)CC2=O (centres undefined)	1.27	7.37	5.8	5.3	–	–	–	–
CC(C)=CCOc1ccc2c(c1)OC(c1cccc(Br)c1)CC2=O (centres undefined)	1.84	4.5	2.45	5.28	–	–	–	–
CC(C)=CCOc1ccc2c(c1)OC(c1ccc(C)cc1C)CC2=O (centres undefined)	0.94	3.42	3.64	8.26	–	–	–	–
CC(C)=CCOc1cc(O)c2c(c1)OC(c1ccccc1Br)CC2=O (centres undefined)	1.18	3.87	3.28	3.82	–	–	–	–
CC(C)=CCOc1ccc2c(c1)OC(c1ccccc1Cl)CC2=O (centres undefined)	3.17	5.37	1.69	8.02	–	–	–	–
CC(C)=CCOc1ccc2c(c1)OC(c1ccccc1)CC2=O (centres undefined)	5.32	9.54	1.79	6.07	–	–	–	–
CC(C)=CCOc1cc(O)c2c(c1)OC(c1ccc(C)cc1)CC2=O (centres undefined)	1	6.54	6.54	4.36	–	–	–	–
CC(C)=CCOc1cc(O)c2c(c1)OC(c1ccc(O)cc1)CC2=O (centres undefined)	2.37	5.38	2.27	5.34	–	–	–	–
CC(C)=CCOc1ccc2c(c1)OC(c1ccc(Cl)cc1Cl)CC2=O (centres undefined)	1.33	3.47	2.61	5.26	–	–	–	–
O=C1C[C@@H](c2ccc(O)cc2)Oc2cc(O)ccc21 [LIQUIRTIGENIN]	9.1	14	1.55	8.96	–	–	–	–
CC(C)=CCOc1ccc2c(c1)OC(c1cccc(Cl)c1)CC2=O (centres undefined)	1.5	3.59	2.39	6.3	–	–	–	–
CC(C)=CCOc1cc(O)c2c(c1)OC(c1ccc(C)cc1C)CC2=O (centres undefined)	0.72	3.92	5.44	6.38	–	–	–	–
COc1ccc(C2CC(=O)c3c(O)cc(OCC=C(C)C)cc3O2)cc1 (centres undefined)	0.27	5.77	21.4	5.08	–	–	–	–
CC(C)=CCOc1ccc2c(c1)OC(c1ccc(Cl)cc1)CC2=O (centres undefined)	2.12	4.22	1.99	6.97	–	–	–	–
CC(C)=CCOc1ccc2c(c1)OC(c1ccc(C)cc1)CC2=O (centres undefined)	1.12	4.09	3.65	4.44	–	–	–	–
CC(C)=CCOc1ccc2c(c1)OC(c1cccc(F)c1)CC2=O (centres undefined)	1.48	4.02	2.72	4.28	–	–	–	–
CC(C)=CCOc1cc(O)c2c(c1)OC(c1ccc(Cl)cc1Cl)CC2=O (centres undefined)	1.04	6.94	6.67	3.34	–	–	–	–

Structure (SMILES)	IC50 [1] [µM]	IC50 [2] [µM]	Ratio IC50 [3]	IC50 [4] [µM]	IC50 [5] [µM]	IC50 [6] [µM]	inhibition [7]	inhibition [8]
CC(C)=CCOc1ccc2c(c1)OC(c1ccc(O)cc1)CC2=O (centres undefined)	3.09	5.02	1.62	6.67	–	–	–	–
CC(C)=CCOc1cc(O)c2c(c1)OC(c1cccc(Cl)c1)CC2=O (centres undefined)	0.99	6.82	6.89	6.06	–	–	–	–
CC(C)=CCOc1cc(O)c2c(c1)OC(c1ccc(Br)cc1)CC2=O (centres undefined)	0.11	6.04	54.9	2.77	> 100	> 80	–	–
CC(C)=CCOc1ccc2c(c1)OC(c1ccc(F)cc1)CC2=O (centres undefined)	0.55	2.58	4.69	7.32	–	–	–	–
CC(C)=CCOc1cc(O)c2c(c1)OC(c1cccc(F)c1)CC2=O (centres undefined)	0.92	5.09	5.53	7.24	–	–	–	–
CC(C)=CCOc1ccc2c(c1)OC(c1ccccc1Br)CC2=O (centres undefined)	2.02	5.02	2.49	3.18	–	–	–	–
CC(C)=CCOc1cc(O)c2c(c1)OC(c1ccccc1)CC2=O (centres undefined)	3.04	6.54	2.15	7.32	–	–	–	–
CC(C)=CCOc1cc(O)c2c(c1)OC(c1ccccc1Cl)CC2=O (centres undefined)	2.14	7.54	3.52	4.27	–	–	–	–
CC(C)=CCOc1cc(O)c2c(c1)OC(c1cccc(Br)c1)CC2=O (centres undefined)	0.82	5.22	6.37	4.04	–	–	–	–
COc1ccc(C2CC(=O)c3ccc(OCC=C(C)C)cc3O2)cc1 (centres undefined)	0.63	4.54	7.21	10.2	–	–	–	–
CC(C)=CCOc1ccc2c(c1)OC(c1ccccc1F)CC2=O (centres undefined)	1.92	5.47	2.85	6.36	–	–	–	–
CC(C)=CCOc1cc(O)c2c(c1)OC(c1ccc(F)cc1)CC2=O (centres undefined)	0.24	6.84	28.5	6.06	–	–	–	–
Cc1c(C)c2c(c(C)c1O)CCC(C)(C(=O)O)O2 (centres undefined) [TROLOX]	–	–	–	6.12	–	–	–	–
COc1ccc(C2CC(=O)c3c(O)cc(OCC=C(C)C)cc3O2)c(OC)c1 (centres undefined)	0.09	5.46	60.7	2.32	> 100	> 100	Active	Active
COc1ccc(C2CC(=O)c3ccc(OCC=C(C)C)cc3O2)c(OC)c1 (centres undefined)	0.37	5.65	15.3	8.18	–	–	–	–
CC(C)=CCOc1cc(O)c2c(c1)OC(c1ccc(Cl)cc1)CC2=O (centres undefined)	1.17	7.07	6.04	7.02	–	–	–	–
CC(C)=CCOc1ccc2c(c1)OC(c1ccc(Br)cc1)CC2=O (centres undefined)	0.77	3.87	5.03	8.12	–	–	–	–
